# Source: patent US20220257516A1, “THERAPEUTIC CONSTRUCTS FOR CO-DELIVERY OF MITOTIC KINASE INHIBITOR AND IMMUNE CHECKPOINT INHIBITOR” (Oregon Health & Science University, priority 2019, published 2022)
# What was measured:
# [1] = tested on: LLC-JSP cells; experiment: Cell viability after treatments (Cell Titer Glo), LLC-JSP; type: cell-based, mouse; details: for 3-day viability of LLC-JSP cells: free mitotic kinase inhibitors
# Experimental: (C) Cell viability of murine cancer cells (LLC-JSP, 4T1, B16-F10) and murine bone marrow-derived dendritic cells (BMDC) treated with p-iPLK1-NP.
# (B) Treatment effect of ADC versus free alisertib of equivalent dose on viability of LLC-JSP cells (2-days). Free alisertib was dissolved in DMSO before use.
# Cell viability after treatments: Cells (1500/well) were plated in white flat bottom 96 well plate overnight. The following day, cells were treated with indicated treatments and media was changed 24 hr post treatment. 3-5 day post treatment, cell viability was assessed using Cell Titer Glo assay (Promega) following manufacturer's instructions. Luminescence was read with Tecan plate reader.
# [2] = tested on: PD-L1 surface expression of LLC-JSP cells; experiment: PD-L1 surface expression by flow cytometry, LLC-JSP; type: cell-based, mouse; details: for surface PD-L1 level of surviving cells: 500 ng/ml
# Experimental: FIGS. 4A-4C Treatment effects of mitotic kinase inhibitors on (A) 3-day viability of LLC-JSP cells, (B) PD-L1 expression levels of surviving cells post treatment with 500 ng/ml of volasertib, alisertib, or AZD7762 as determined by flow cytometry and (C) their quantification.
# FIGS. 6A-6D Nanoparticle delivery of PLK1 inhibitor volasertib (iPLK1-NP) to mouse NSCLC cells. (FIG. 6A) Schematic of synthesis of iPLK1-NP. (FIG. 6B) Hydrodynamic size of NP (with no inhibitor) and iPLK1-NP measured with Zetasizer. (FIG. 6C) Viability of LLC-JSP cells treated with volasertib (in 1% DMSO/PBS), iPLK1-NP (in PBS), or 1% DMSO/PBS for 4 days. Data presented as mean±SD from 4 independent samples; ****P<0.0001. (FIG. 6D) PD-L1 surface expression of LLC-JSP cells treated with PBS or iPLK1-NP (42 μg/ml NP, 210 ng/ml volasertib) for 3 days.
# FIGS. 7A-7E. Nanoparticle for co-delivery of PLK1 inhibitor (iPLK1) and PD-L1 antibody (p-iPLK1-NP). (FIG. 7A) Schematic and (FIG. 7B) hydrodynamic size of p-iPLK1-NP containing 4 wt. % of PD-L1 antibody and 0.5 wt. % of PLK1 inhibitor. (FIG. 7C) 5-day cell viability of LLC-JSP cells treated with iPLK1-NP or p-iPLK1-NP. Data presented as mean±SD from 4 independent samples; ns—not significant. PD-L1 surface expression assessed by flow cytometry after LLC-JSP cells were incubated with various treatments as specified for (FIG. 7D) 2 hrs and (FIG. 7E) 2 days. Doses: free PD-L1 antibody (50 μg/ml), iPLK1-NP (NP containing 50 μg/ml volasertib), and p-iPLK1-NP (NP containing 50 μg/ml volasertib and 2 μg/ml PD-L1 antibody). Left of FIGS. 7D and 7E: representative histograms, right: median intensity (RFU). Data presented as mean±SD from independent duplicates (10,000 events per sample); *P<0.05, **P<0.01, ***P<0.001, ****P<0.0001. Unless specified otherwise, the percent loading is by weight of nanoparticle throughout the application.
# (§1) FIGS. 12A and 12B. Inhibition of PLK1 reduces phosphorylation of STAT3. Western blot showing protein expression of PLK1, Pl3Ka, phosphorylated STAT3 (Tyr705), phosphorylated AKT (Ser473), and p-Actin 3 days post treatment (50 nM siRNA) in A549 and H460 NSCLC cell lines. […] The cells were treated with NP containing 30 nM siRNA against PD-L1 (siPDL1) or 30 nM scrambled siRNA (siSCR) at 2 wt. % siRNA. At 72 hr post treatment, cells were harvested and assessed for PD-L1 protein expression by flow cytometry. RFU=Relative fluorescence units.
# Flow cytometry: Cells (100K cells/well) were plated in 6 well plates overnight and treated with indicated treatments the next day. Following treatments, cells were collected and aliquoted to […] per sample before washing in FACs buffer and staining. […] Cells were then washed with FACs buffer and analyzed with Guava (50,000 events per sample).
# [3] = tested on: A549; experiment: Cell cycle arrest in G2/M phase; type: cell-based, human; details: 72 hr post treatment, 50 nM siRNA, BI 2536 at 10 nM
# Experimental: (§2) FIGS. 2A-2D. Effects of siRNA against mitotic regulator PLK1 (siPLK1) on non-small-cell lung carcinoma (NSCLC) cell lines (A549 and H460). (FIG. 2A) 48-hr PLK1 mRNA knockdown (HPRT used as house-keeping gene) and (FIG. 2B) 72-hr PLK1 protein reduction at 50 nM siRNA dose. (FIG. 2C) 4-day cell viability at 30 nM siRNA dose. (FIG. 2D) Cell cycle arrest increase in G2/M phase in A549 72 hr post treatment. Antibody (cetuximab) conjugated NP was used to deliver the siPLK1 (C-siPLK1-NP) or scrambled siRNA control (C-siSCR-NP) at 50 nM siRNA BI 2536 (a PLK1 inhibitor) was used as a drug benchmark at 10 nM. Data presented as mean±SD from independent duplicates (10,000 events per sample); ****P<0.0001 vs. untreat control. Unless specified otherwise, “NP” denotes mesoporous silica nanoparticles coated with cross-linked PEI and PEG, as described in Ngamcherdtrakul et al., Advanced Functional Materials, 25(18):2646-2659, 2015 and U.S. Patent Application Publication No. 2017/0173169.
# [4] = tested on: PD-L1 mRNA expression in A549; experiment: PD-L1 mRNA expression after PLK1 knock-down (RT-qPCR); type: cell-based, human; details: 48 hr, compared with control treated cells
# From the text: (§3) FIGS. 3A-3C. […] (FIG. 3A) PLK1 and PD-L1 mRNA expression in A549 (human NSCLC) at 48 hr post treatment with PLK1 siRNA (siPLK1) or scrambled siRNA (siSCR) normalized to HPRT housekeeping gene. Data presented as mean±SD from triplicates; ****P<0.0001. (FIG. 3B) PD-L1 surface expression of A549 ([…]) and LLC-JSP (a mouse NSCLC, FIG. 3C) at 72 hr post treatments assessed by flow cytometry (10,000 events per sample). Mouse siPLK1 seq. […] (SEQ ID NO: 1); Human siPLK1 seq. […] (SEQ ID NO: 2).
# RT-qPCR to assess PLK1 gene knock down: RNA was isolated with GeneJet RNA purification kit (Thermo Fisher Scientific) following manufacturer's instructions. One-Step qRT-PCR was performed using EXPRESS One-Step Superscript™ qRT-PCR Kit (Invitrogen). Cycling conditions: 50° C. for 2 min, 95° C. for 10 min, 40 cycles of 95° C. for 15 s, and 60° C. for 1 min. TAQMAN gene expression primers Human HPRT mRNA (Hs99999909_m1), Human PLK1 mRNA (Hs00983225_g1), and Human PD-L1 (Hs00204257_ml) were used. Data was analyzed using 2^−ΔΔC(t) method.
# [5] = tested on: PD-L1 surface expression of A549; experiment: PD-L1 surface expression by flow cytometry, A549; type: cell-based, human; details: 3 days (72 hr) post siRNA treatment
# From the text: as §3
# Flow cytometry: Cells (100K cells/well) were plated in 6 well plates overnight and treated with indicated treatments the next day. Following treatments, cells were collected and aliquoted to […] per sample before washing in FACs buffer and staining. Primary and secondary antibodies were stained for 30 mins and 1 hour, respectively, under rocking on ice. After staining, cells were washed in FACs buffer before flow analysis with Guava easyCyte (Millipore Sigma) flow cytometer (10,000 events per sample). For tumors, tumors were harvested, minced, and incubated with 1 mg/ml DNAse for 30 minutes before smashing through 70 μm filter to obtain single cell suspension. RBC lysis buffer was incubated with cells for 5 minutes, and washed with PBS. […] Cells were then washed with FACs buffer and analyzed with Guava (50,000 events per sample).
# [6] = tested on: PLK1 mRNA; experiment: PLK1 knock down by siRNA (RT-qPCR / protein); type: cell-based, human; details: A549; 48 hr post treatment; normalized to HPRT
# Experimental: as §2
# FIGS. 3A-3C. […] (FIG. 3B) PD-L1 surface expression of A549 (FIG. 2B) and LLC-JSP (a mouse NSCLC, FIG. 3C) at 72 hr post treatments assessed by flow cytometry (10,000 events per sample). […]
# RT-qPCR to assess PLK1 gene knock down: RNA was isolated with GeneJet RNA purification kit (Thermo Fisher Scientific) following manufacturer's instructions. […] Data was analyzed using 2^−ΔΔC(t) method.
# [7] = tested on: phosphorylated STAT3 (Tyr705); experiment: Western blot of phosphorylated STAT3 after PLK1 inhibition; type: cell-based, human; details: A549 and H460; 3 days post treatment; 50 nM siRNA
# Experimental: as §1
# Western Blot. Cells were seeded in 6 well plates overnight and treated with indicated treatments. Cell culture medium was changed one day aftertreatment. Three days post treatment, cells were lysed in RIPA buffer (50-100 μl per well). Lysate was sonicated and centrifuged (15,000 RPM for 15 minutes) and supernatant was collected. Amount of total protein was quantified using BCA. 30 μg of proteins (per sample) were mixed with 4× Novex NuPAGE LDS sample buffer and beta-mercaptoethanol (10% final concentration). Samples were denatured for 5 min at 95° C. and loaded onto gel (NuPAGE) for electrophoresis. Proteins were then transferred onto PVDF-FL membrane and blocked with LICOR blocking buffer. Membranes were incubated with primary antibodies overnight (PLK1, phospho-STAT3 (Tyr705), β-ACTIN) at 4° C. […]
compound,measurement,setting,value
NC(=O)Nc1cc(-c2cccc(F)c2)sc1C(=O)N[C@H]1CCCNC1 [AZD7762],3-day viability of LLC-JSP cells,[1],significant cell death
same,surface PD-L1 level of surviving cells,[2],upregulated surface PD-L1 level
CC[C@@H]1C(=O)N(C)c2cnc(Nc3ccc(C(=O)NC4CCN(C)CC4)cc3OC)nc2N1C1CCCC1 [BI2536],cell cycle arrest in G2/M phase,[3],G2/M growth arrest
COc1cc(Nc2ncc3c(n2)-c2ccc(Cl)cc2C(c2c(F)cccc2OC)=NC3)ccc1C(=O)O [alisertib],3-day viability of LLC-JSP cells,[1],significant cell death
same,surface PD-L1 level of surviving cells,[2],upregulated surface PD-L1 level
CC[C@@H]1C(=O)N(C)c2cnc(Nc3ccc(C(=O)N[C@H]4CC[C@H](N5CCN(CC6CC6)CC5)CC4)cc3OC)nc2N1C(C)C [volasertib],cell viability compared with vehicle treated cells,"[1]; LLC-JSP, 4 days, dose-dependent",significantly reduced cell viability
same,3-day viability of LLC-JSP cells,[1],significant cell death
same,surface PD-L1 level of surviving cells,[2],upregulated surface PD-L1 level
"Mouse siPLK1: Mouse siPLK1 seq. GUGGGCGUGGUACCAUCUGUU (SEQ ID NO: 1) (listed as RNA, chemistry not given here)",PD-L1 surface expression,[2]; 72 hr post siRNA treatment,induces PD-L1 expression
"siPLK1: siRNA against PLK1, antisense 5′-UAUUCAUUCUUCUUGAUCCGG-3′; SEQ ID NO: 2 (sense strand lacks entry, further chemistry not given here)",increase in PD-L1 mRNA expression,[4],2.5 fold
same,PD-L1 surface expression,[5],increase in PD-L1 surface expression
same,knockdown of PLK1 mRNA,[6],85%
same,phosphorylation of STAT3,[7],reduced phosphorylation of STAT3
